Test results: paper PMC9995496, “A screen for MeCP2-TBL1 interaction inhibitors using a luminescence-based assay” (Scientific Reports, 2023)
Structures can show the parent of a compound that is named as a salt. Where two headings read alike, the source gives them in different places.

Tested on: PRKACA-PRKAR2A interaction (SmBiT-PRKACA / LgBiT-PRKAR2A), protein kinase A
Design: NanoLuc complementation counter-screen in cell extract, PRKACA with PRKAR2A, loss of luminescence, detects NanoLuc interference
Conditions: 0.5 h, 20 µM, inhibitor
[1] = counter-screen for NanoLuc interference
[2] = counter-screen for NanoLuc interference, Inh (PKA)

| SMILES | Inh (PKA) [1] | other results |
| --- | --- | --- |
| NC(=O)c1ccc(N(C(N)=O)c2c(F)cccc2F)nc1-c1ccc(F)cc1F [UM0127964:03, VX-702] | 6.199% | – |
| CN(C)CCCn1cc(C2=C(c3c[nH]c4ccccc34)C(=O)NC2=O)c2ccccc21 [UM0127819:02, GF 109203X] | 67.69% | – |
| Cn1ccnc1S [UM0132728:02, Methimazole] | 3.033% | – |
| Cc1ccc2nc(NCCN)c3ncc(C)n3c2c1 [UM0142559:01, BMS-345541(free base)] | 1.467% | – |
| CCC1=C[C@@H]2CN(C1)Cc1c([nH]c3ccccc13)[C@@](C(=O)OC)(c1cc3c(cc1OC)N(C)[C@H]1[C@@](O)(C(=O)OC)[C@H](OC(C)=O)[C@]4(CC)C=CCN5CC[C@]31[C@@H]54)C2 [UM0141644:01, Vinorelbine ditartrate] | 3.937% | – |
| c1c[nH]cn1 [UM0142811:01, Imidazole] | 0.004759% | – |
| CNC(=O)c1ccccc1Nc1nc(Nc2ccc(N3CCOCC3)cc2OC)ncc1Cl [UM0142088:01, TAE226 (NVP-TAE226)] | 15.32% | – |
| O=C(NC[C@H](O)CO)c1ccncc1Nc1ccc(I)cc1F [UM0141896:01, Pimasertib (AS-703026)] | 20.8% | – |
| CCCC[S+]([O-])c1sc2nc(-c3cccs3)cc(-c3ccccc3)c2c1N (stereo not shown) [UM0142124:01, SW033291] | 33.39% | – |
| COc1cc2c(cc1OC)CN(CCc1ccc(NC(=O)c3cccc4c(=O)c5cccc(OC)c5[nH]c34)cc1)CC2 [UM0141547:01, Elacridar] | 22.37% | – |
| O[C@@H](CNC[C@H](O)[C@H]1CCc2cc(F)ccc2O1)[C@@H]1CCc2cc(F)ccc2O1 (racemic) [UM0142211:01, Nebivolol] | 3.79% | – |
| CCCCOc1c(C(=O)c2c(F)cc(C)cc2F)c[nH]c2nncc1-2 [UM0142024:01, BMS265246] | 6.004% | – |
| C=C1CC[C@@H]2[C@](C)(CO)[C@H](O)CC[C@@]2(C)[C@H]1C/C=C1\C=COC1=O [UM0142846:01, Dehydroandrographolide] | 12.37% | – |
| c1ccc(-c2[nH]ncc2-c2ccnc3ccccc23)nc1 [UM0127931:02, LY364947] | 7.119% | – |
| CCN1/C(=C/C(C)=O)Sc2ccc(OC)cc21 [UM0142254:01, TG003] | 0.5333% | – |
| Cc1[nH]c(/C=C2\C(=O)Nc3ccc(S(=O)(=O)N(C)c4cccc(Cl)c4)cc32)c(C)c1C(=O)N1CCN(C)CC1 [UM0127889:02, SU11274] | 71.51% | – |
| CC1COC2(CCN(c3nc(=O)c4cc(C(F)(F)F)cc([N+](=O)[O-])c4s3)CC2)O1 (racemic) [UM0141871:01, BTZ043 Racemate] | 1.801% | – |
| Oc1cc(O)cc(/C=C/c2ccc(O)c(O)c2)c1 [UM0128559:03, Piceatannol] | 17.81% | – |
| COc1cc(Nc2ncc3c(n2)-c2ccc(Cl)cc2C(c2c(F)cccc2OC)=NC3)ccc1C(=O)O [UM0135487:02, MLN8237 (Alisertib)] | 50.43% | – |
| CNC(=O)c1cc(Oc2ccc(NC(=O)Nc3ccc(Cl)c(C(F)(F)F)c3)c(F)c2)ccn1 [UM0141611:01, Regorafenib monohydrate] | – | Inh (PKA) [2]: 6.023% |

| SMILES | Inh (PKA) [1] | other results |
| --- | --- | --- |
| COc1ccnc(C[S+]([O-])c2nc3cc(OC(F)F)ccc3[nH]2)c1OC (stereo not shown) [UM0121277:03, Pantoprazole] | -0.2371% | – |
| CCc1c2c(nc3ccc(O)cc13)-c1cc3c(c(=O)n1C2)COC(=O)[C@]3(O)CC [UM0142861:01, 7-Ethyl-10-hydroxycamptothecin] | 8.347% | – |
| C#Cc1cccc(Nc2ncnc3cc(OCCOC)c(OCCOC)cc23)c1 [UM0130975:02, Erlotinib Hydrochloride] | – | Inh (PKA) [2]: 10.54% |
| N#CC(C#N)=Cc1ccc(O)c(O)c1 [UM0120250:03, AG-18] | 48.6% | – |
| C/C(O)=C(\C#N)C(=O)Nc1cc(Br)ccc1Br [UM0133802:02, LFM-A13] | 54.46% | – |
| NC(=O)c1cnc(N[C@@H]2CCCC[C@@H]2N)nc1Nc1cccc(-n2nccn2)c1 [UM0141609:01, PRT062607 Hydrochloride] | 22.19% | – |
| C[C@]12C=CC(=O)N[C@@H]1CC[C@@H]1[C@@H]2CC[C@]2(C)[C@@H](C(=O)Nc3cc(C(F)(F)F)ccc3C(F)(F)F)CC[C@@H]12 [UM0141408:01, Dutasteride] | 7.996% | – |
| CN(C)CCOC(C)(c1ccccc1)c1ccccn1 (stereo not shown) [UM0142354:01, Doxylamine Succinate] | 1.104% | – |
| CCOc1ccc(Cc2cc([C@@H]3O[C@H](CO)[C@@H](O)[C@H](O)[C@H]3O)ccc2Cl)cc1 [UM0141914:01, Dapagliflozin] | 0.9919% | – |
| COc1cc(C(=O)N2CCC(N3CCN(C)CC3)CC2)ccc1Nc1ncc2c(n1)N(C)c1ccccc1C(=O)N2C [UM0141580:01, LRRK2-IN-1] | 12.15% | – |
| CCOC(CN1CCN(CC(C)C(=O)c2ccccc2)CC1)c1ccccc1 (stereo not shown) [UM0142356:01, Eprazinone 2HCl] | 5.222% | – |
| O=C(NCC(=O)N1CCCC1)Nc1ccc2cnccc2c1 [UM0142726:01, SGC707] | 9.797% | – |
| CS(=O)(=O)c1ccc(C2=C(c3ccccc3)C(=O)OC2)cc1 [UM0133054:02, Rofecoxib] | 1.384% | – |
| CCCN1CCN(c2ccc(C(=O)NC3(C(=O)NCC#N)CCCCC3)cc2)CC1 [UM0142500:01, Balicatib] | -0.9688% | – |
| C[C@@H]1CN(CC(=O)Nc2ccc3c(c2)Cc2cccc(-c4cc(=O)cc(N5CCOCC5)o4)c2S3)C[C@H](C)O1 [UM0142000:01, KU-60019] | 8.664% | – |
| C[C@@H](c1ncncc1F)[C@](O)(Cn1cncn1)c1ccc(F)cc1F [UM0141780:01, Voriconazole] | 0.951% | – |
| CC(=O)O[C@@]12CO[C@@H]1C[C@H](O)[C@@]1(C)C(=O)[C@H](O)C3=C(C)[C@@H](OC(=O)[C@H](O)[C@@H](NC(=O)OC(C)(C)C)c4ccccc4)C[C@@](O)([C@@H](OC(=O)c4ccccc4)[C@H]21)C3(C)C [UM0141543:01, Docetaxel Trihydrate] | – | Inh (PKA) [2]: 1.786% |
| OCCn1cc(-c2ccc3c(c2)CC/C3=N\O)c(-c2ccncc2)n1 [UM0141866:01, GDC-0879] | 3.817% | – |
| CCCCc1nc2cc(/C=C/C(=O)NO)ccc2n1CCN(CC)CC [UM0139427:02, Pracinostat (SB939)] | 1.482% | – |
| N#CC(c1ccnc(OCc2ccc(CN3CCOCC3)cc2)n1)c1nc2ccccc2s1 (stereo not shown) [UM0141518:01, AS 602801] | 8.348% | – |

| SMILES | Inh (PKA) [1] | other results |
| --- | --- | --- |
| O=C1CCC[C@@H]2[C@H]3CCCN4CCC[C@@H](CN12)[C@@H]34 [UM0141584:01, Matrine] | 1.794% | – |
| CC(C)N(CCC(=O)c1ccc2ccccc2c1)Cc1ccccc1 [UM0120052:04, ZM 39923 HCl] | 18.59% | – |
| OC[C@@H](O)[C@@H](O)[C@@H](O)CO [UM0050273:04, Ribitol] | 0.444% | – |
| CC[C@@H]1C(=O)N(C)c2cnc(Nc3ccc(C(=O)N[C@H]4CC[C@H](N5CCN(CC6CC6)CC5)CC4)cc3OC)nc2N1C(C)C [UM0142089:01, BI6727 (Volasertib)] | 8.077% | – |
| COc1ccc(S(=O)(=O)N2CCC(N3CCC(C)CC3)CC2)cc1 [UM0142132:01, TASIN-1] | 4.343% | – |
| COc1ccc(S(=O)(=O)N(C(C)=O)c2ccccc2/C=C/c2cc[n+]([O-])cc2)cc1 [UM0141887:01, HMN-214] | 4.215% | – |
| CC(C)c1cc(-c2n[nH]c(=O)n2-c2ccc3c(ccn3C)c2)c(O)cc1O [UM0141825:01, Ganetespib (STA-9090)] | 30.75% | – |
| CN1CCCCC1Cn1cc(C(=O)c2cc([N+](=O)[O-])ccc2I)c2ccccc21 (stereo not shown) [UM0141913:01, AM1241] | – | Inh (PKA): 12.3% |
| O=C(Nc1nc2ccccc2n1CCN1CCOCC1)c1cccc([N+](=O)[O-])c1 [UM0127874:03, IRAK-1-4 Inhibitor I] | 12.44% | – |
| COc1ccc(Cl)c(Nc2nc3ccccc3nc2NS(=O)(=O)c2cccc(NC(=O)C(C)(C)N)c2)c1 [UM0130997:02, XL147] | 61.81% | – |
| N#CCNC(=O)c1ccc(-c2ccnc(Nc3ccc(N4CCOCC4)cc3)n2)cc1 [UM0136756:02, CYT387] | 3.804% | – |
| Cn1cc(C2=C(c3cn(CCCSC(=N)N)c4ccccc34)C(=O)NC2=O)c2ccccc21 [UM0142439:01, Ro 31-8220 Mesylate] | 76.02% | – |
| Clc1ccc(Nc2nnc(Cc3ccncc3)c3ccccc23)cc1 [UM0127963:02, Vatalanib (PTK787) 2HCl] | – | Inh (PKA) [2]: 26.41% |
| CC(C)(C)NC(=O)[C@@H]1C[C@@H]2CCCC[C@@H]2CN1C[C@@H](O)[C@H](Cc1ccccc1)NC(=O)[C@H](CC(N)=O)NC(=O)c1ccc2ccccc2n1 [UM0141624:01, Saquinavir mesylate] | 9.291% | – |
| CCCCC(=O)O[C@H]1CC[C@H]2[C@@H]3CCc4cc(O)ccc4[C@H]3CC[C@]12C [UM0142282:01, Estradiol valerate] | 9.885% | – |
| O=C(N/N=C/c1ccc([N+](=O)[O-])o1)c1ccc(O)cc1 [UM0133346:02, Nifuroxazide] | 17.08% | – |
| CN(C)CCc1c[nH]c2ccc(C[C@H]3COC(=O)N3)cc12 [UM0121308:03, Zolmitriptan] | -0.4605% | – |
| Oc1cccc(-c2nc(N3CCOCC3)c3oc4ncccc4c3n2)c1 [UM0141606:01, PI-103 Hydrochloride] | – | Inh (PKA) [2]: 17.85% |
